Laboratory results published in patent US20260297092A1, “PYRAZOLOPYRIMIDINE DERIVATIVES AS INHIBITORS OF NLRP3” (Takeda Pharmaceutical Company Limited, priority 2023, published 2026).

What was measured:
[1] = system: NLRP3 inflammasome (IL-1β production in THP-1 cells); test: IL-1β TR-FRET Assay (percentage of inhibition at 300 nM, 6 μM or 10 μM); format: cell-based, human; details: Homo sapiens, THP-1, 6 μM, LPS priming, ATP activation, read-out: IL-1β inhibitory rate at 6 μM (%)
Method in brief: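 THP-1 cells were differentiated with 25 ng/mL IFN-γ for 24 h, primed with 50 ng/mL LPS in serum-free medium for 24 h, then given compound for 30 min before 20 mM ATP for 2 h. Supernatant IL-1β was measured by HTRF after 16-24 h at room temperature. Inhibition was normalized between DMSO (high) and 3 μM MCC-950 (low).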

[2] = system: TNF-α (NF-κB pathway, THP-1 cells); test: TNF-α Assay (IC50); format: cell-based, human; details: Homo sapiens, 600 ng/mL LPS, 3 hours
Method in brief: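 THP-1 cells differentiated to macrophages with 25 ng/mL IFN for 24 h, plated 40,000/well in serum-free medium, preincubated with compounds 30 min at 37 °C, then stimulated with 600 ng/mL LPS for 3 h. Supernatant TNF-α measured by ELISA; IC50 from four-parameter logistic fit, 100% inhibition defined by TPCA-1.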

SMILES | IC50 [2] | inhibition at 6 µM [1]
O=c1[nH]c(C2CCOC2)nc2nn(-c3c(F)cc(C4CC4)cc3C(F)F)cc12 (stereo not drawn) [Example 296, 2-[4-cyclopropyl-2-(difluoromethyl)-6-fluorophenyl]-6-(oxolan-3-yl)-2,5-dihydro-4H-pyrazolo [3,4-d]pyrimidin-4-one] | > 30 µM | 104%
Cc1nc(-c2nc3nn(-c4c(F)cc(C5CC5)cc4C(F)F)cc3c(=O)[nH]2)co1 [Example 298, 2-[4-cyclopropyl-2-(difluoromethyl)-6-fluorophenyl]-6-(2-methyl-1,3-oxazol-4-yl)-2,5-dihydro-4H-pyrazolo[3,4-d]pyrimidin-4-one] | > 30 µM | 99%
Cn1ccc(-c2nc3nn(-c4c(F)cc(C5CC5)cc4C(F)F)cc3c(=O)[nH]2)n1 [Example 299, 2-[4-cyclopropyl-2-(difluoromethyl)-6-fluorophenyl]-6-(1-methyl-1H-pyrazol-3-yl)-2,5-dihydro-4H-pyrazolo[3,4-d]pyrimidin-4-one] | > 30 µM | 99%
COCCc1nc2nn(-c3c(F)cc(C4CC4)cc3C(F)F)cc2c(=O)[nH]1 [Example 300, 2-[4-cyclopropyl-2-(difluoromethyl)-6-fluorophenyl]-6-(2-methoxyethyl)-2,5-dihydro-4H-pyrazolo[3,4-d]pyrimidin-4-one] | > 30 µM | 99%
CCc1cc(C2(F)CC2)cc(C)c1-n1cc2c(=O)[nH]c(OC)nc2n1 [Example 301, 2-[2-ethyl-4-(1-fluorocyclopropyl)-6-methylphenyl]-6-methoxy-2,5-dihydro-4H-pyrazolo[3,4-d]pyrimidin-4-one] | > 30 µM | 98%
O=c1[nH]c(COC(F)F)nc2nn(-c3c(F)cc(C4CC4)cc3C(F)F)cc12 [Example 302, 2-[4-cyclopropyl-2-(difluoromethyl)-6-fluorophenyl]-6-[(difluoromethoxy)methyl]-2,5-dihydro-4H-pyrazolo[3,4-d]pyrimidin-4-one] | > 30 µM | 96%
CCOc1nc2nn(-c3c(C)cc(C4CC4)nc3C(F)(F)F)cc2c(=O)[nH]1 [Example 303, 2-[6-cyclopropyl-4-methyl-2-(trifluoromethyl)pyridin-3-yl]-6-ethoxy-2,5-dihydro-4H-pyrazolo[3,4-d]pyrimidin-4-one] | > 30 µM | 100%

Now from value to molecule, other results behind:

IC50 [2] | SMILES | inhibition at 6 µM [1]
> 30 µM | Cc1cc(C2CC2)cc(C)c1-n1cc2c(=O)[nH]c(O[C@@H]3CCOC3)nc2n1 [Example 293, 2-(4-cyclopropyl-2,6-dimethylphenyl)-6-{[(3R)-oxolan-3-yl]oxy}-2,5-dihydro-4H-pyrazolo[3,4-d]pyrimidin-4-one] | 99%
> 30 µM | CCc1nc2nn(-c3c(F)cc(C4CC4)cc3C(F)F)cc2c(=O)[nH]1 [Example 295, 2-[4-cyclopropyl-2-(difluoromethyl)-6-fluorophenyl]-6-ethyl-2,5-dihydro-4H-pyrazolo[3,4-d]pyrimidin-4-one] | 105%
> 30 µM | Cc1cc(C2CC2)cc(C)c1-n1cc2c(=O)[nH]c(-c3ccn(C)n3)nc2n1 [Example 297, 2-(4-cyclopropyl-2,6-dimethylphenyl)-6-(1-methyl-1H-pyrazol-3-yl)-2,5-dihydro-4H-pyrazolo[3,4-d]pyrimidin-4-one] | 90%
> 30 µM | COCc1nc2nn(-c3c(F)cc(C4CC4)cc3C(F)F)cc2c(=O)[nH]1 [Example 308, 2-[4-cyclopropyl-2-(difluoromethyl)-6-fluorophenyl]-6-(methoxymethyl)-2,5-dihydro-4H-pyrazolo[3,4-d]pyrimidin-4-one] | 103%
> 30 µM | Cc1cc(C2CC2)cc(C)c1-n1cc2c(=O)[nH]c(CC#N)nc2n1 [Example 317, [2-(4-cyclopropyl-2,6-dimethylphenyl)-4-oxo-4,5-dihydro-2H-pyrazolo[3,4-d]pyrimidin-6-yl]acetonitrile] | 100%
> 30 µM | Cc1cc(C2CC2)cc(C(F)F)c1-n1cc2c(=O)[nH]c(C3(F)CC3)nc2n1 [Example 319, 2-[4-cyclopropyl-2-(difluoromethyl)-6-methylphenyl]-6-(1-fluorocyclopropyl)-2,5-dihydro-4H-pyrazolo[3,4-d]pyrimidin-4-one] | 100%
> 30 µM | COCc1nc2nn(-c3c(C)cc(C4CC4)cc3C(F)F)cc2c(=O)[nH]1 [Example 321, 2-[4-cyclopropyl-2-(difluoromethyl)-6-methylphenyl]-6-(methoxymethyl)-2,5-dihydro-4H-pyrazolo[3,4-d]pyrimidin-4-one] | 103%
> 30 µM | COCc1nc2nn(-c3c(F)cc(C4CC4)cc3CC(F)F)cc2c(=O)[nH]1 [Example 322, 2-[4-cyclopropyl-2-(2,2-difluoroethyl)-6-fluorophenyl]-6-(methoxymethyl)-2,5-dihydro-4H-pyrazolo[3,4-d]pyrimidin-4-one] | 104%
